Two substances from PMC6602303, “Yeast ceramide synthases, Lag1 and Lac1, have distinct substrate specificity” (Journal of Cell Science, 2019) can be followed below.

One test addresses T1, Lac1 (Saccharomyces cerevisiae, UniProt P28496).
T1 construct: native full-length protein in cryo-milled lysate of Δlag1Δsur2 yeast; with Ceramide synthase subunit LIP1
T1 sequence (P28496 2-418): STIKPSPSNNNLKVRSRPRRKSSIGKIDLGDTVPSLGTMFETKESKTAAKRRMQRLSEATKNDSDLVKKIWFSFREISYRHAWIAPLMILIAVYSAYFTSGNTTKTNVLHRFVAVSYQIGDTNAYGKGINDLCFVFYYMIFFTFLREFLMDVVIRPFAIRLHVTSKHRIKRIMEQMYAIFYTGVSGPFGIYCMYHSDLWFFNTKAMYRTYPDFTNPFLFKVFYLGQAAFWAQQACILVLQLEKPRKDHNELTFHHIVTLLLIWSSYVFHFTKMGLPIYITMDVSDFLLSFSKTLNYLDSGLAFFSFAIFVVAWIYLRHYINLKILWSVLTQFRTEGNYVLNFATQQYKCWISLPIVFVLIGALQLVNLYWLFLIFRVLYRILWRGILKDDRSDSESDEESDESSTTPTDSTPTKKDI
T1 sequence (Q03579 1-150 partner): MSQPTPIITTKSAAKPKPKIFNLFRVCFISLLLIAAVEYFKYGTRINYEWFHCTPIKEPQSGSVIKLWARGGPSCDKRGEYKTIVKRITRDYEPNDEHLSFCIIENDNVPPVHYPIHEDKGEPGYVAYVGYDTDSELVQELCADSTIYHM
Put plainly: in vitro CerS assay, TLC fluorescence of NBD-ceramide. The test is classed as cell-free. Conditions: labelled compound; 50 μM C26-CoA, 5 μM human ACBP1, 20 μM defatted BSA, 2 mM MgCl2, pH 7.2, 37°C; Δlag1Δsur2 lysate; read-out: apparent Km. The text has this: in vitro CerS assay, TLC fluorescence of NBD-ceramide on Lac1 | Lag1 (Δlac1Δsur2) has a higher affinity towards PHS than Lac1 (Δlag1Δsur2) | We next determined the Km of Lag1 or Lac1 towards DHS and PHS

The target of a further test is T2, Lag1 (Saccharomyces cerevisiae, UniProt P38703).
T2 construct: native full-length protein in cryo-milled lysate of Δlac1Δsur2 yeast; with Ceramide synthase subunit LIP1
T2 sequence (P38703 1-411): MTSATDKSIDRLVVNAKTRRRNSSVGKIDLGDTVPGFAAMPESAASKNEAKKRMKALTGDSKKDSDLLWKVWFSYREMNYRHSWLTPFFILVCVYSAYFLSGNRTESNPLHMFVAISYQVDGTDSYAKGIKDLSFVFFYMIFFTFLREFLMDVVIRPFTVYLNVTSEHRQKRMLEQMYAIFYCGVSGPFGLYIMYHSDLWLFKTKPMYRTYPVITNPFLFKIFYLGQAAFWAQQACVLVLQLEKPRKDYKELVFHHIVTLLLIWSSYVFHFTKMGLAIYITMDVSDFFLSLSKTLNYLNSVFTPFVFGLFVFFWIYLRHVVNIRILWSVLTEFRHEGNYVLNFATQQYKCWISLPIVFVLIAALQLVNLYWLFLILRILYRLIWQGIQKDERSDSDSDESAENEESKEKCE
T2 sequence (Q03579 1-150 partner): T1 sequence (Q03579 1-150 partner)
Described as above. The class given is cell-free (lysate). Conditions: labelled compound; 50 μM C26-CoA, 5 μM human ACBP1, 20 μM defatted BSA, 2 mM MgCl2, pH 7.2, 37°C; Δlac1Δsur2 lysate; read-out: apparent Km. The text has this: in vitro CerS assay, TLC fluorescence of NBD-ceramide on Lag1 | Lag1 (Δlac1Δsur2) has a higher affinity towards PHS than Lac1 (Δlag1Δsur2) | We next determined the Km of Lag1 or Lac1 towards DHS and PHS

A word on the Km: it is the substrate concentration at which the rate is half of its maximum. On to NBD–DHS, for which the Km came to 165 ± 56 µM on Lac1 and 132 ± 29 µM on Lag1.

Regarding NBD–PHS, the Km was 128 ± 52.5 µM at Lac1 and 30.5 ± 6.6 µM at Lag1.
